Measurements published in US12612412B2, “Antiviral heterocyclic compounds” (Enanta Pharmaceuticals, Inc., priority 2021, dated 2026).

Assays:
[1] = tested on: genotype A, "Long" strain RSV; experiment: RSV-A assay (CPE protection in Hep-2 cells, ATPlite readout); assay type: cell-based, Human respiratory syncytial virus (HRSV); details: human respiratory syncytial virus, genotype A “Long” strain RSV, MOI 0.1, CPE protection, read-out: Human RSV-A (“Long”)
Procedure, shortened: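 Compound effect on RSV-induced CPE: Hep-2 monolayers, MOI 0.1, duplicate 2-fold titrations, 5-day culture in 10% FBS DMEM. Readout is ATP-based luminescence, normalised to virus-only and no-virus controls, giving EC50.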

[2] = tested on: HMPV clinical isolate TN/1501/A1; experiment: HMPV antiviral assay Method-B (clinical isolate TN/1501/A1 in LLC-MK2 cells, ATP-Lite readout); assay type: cell-based, Human metapneumovirus (HMPV); details: human metapneumovirus, LLC-MK2, 144 h, hMPV WT1501 (clinical isolate TN/1501/A1), 6 days
Method: In vitro HMPV antiviral activity was evaluated using the clinical isolate TN/1501/A1 and LLC-MK2 cells (ATCC #CCL-7), an immortalized kidney epithelial cell line from Macaca mulatta. Compounds were resuspended in dimethyl sulfoxide (DMSO) at 10 mM and added to a 384-well source plate. The compounds were diluted and transferred onto 384-well assay plates using the Echo-650 automated liquid handling system (Beckman Coulter, Indiana). The test compounds were assessed in duplicate at a top concentration of 10 μM followed by 3-fold serial dilutions to give a total of 10 concentration points. DMSO control wells were also included on the assay plates and were either infected or not, acting as positive and negative controls. TN/1501/A1 virus infections were performed in-suspension with LLC-MK2 cells. The cells were washed twice with PBS and removed from the cell-culture flask with 0.25% trypsin-EDTA (Thermo Fisher Scientific, MA). The trypsin-EDTA was inactivated by resuspending in 2% fetal bovine serum (FBS) and OptiMEM (ThermoFisher Scientific, MA) containing 1% penicillin-streptomycin. Cells were pelleted by centrifuging for 5 minutes at 800 rpm, the supernatant was removed, and cells were suspended in PBS plus 100 μg/mL CaCl2). This step was performed twice. Cells were then resuspended in serum-free (SF)-OptiMEM containing 4 μg/mL TPCK-Trypsin (Sigma Aldrich, MO), 1% penicillin-streptomycin (ThermoFisher Scientific, MA) and 100 μg/mL CaCl2). Cells were counted and seeded at a density of 5,000 cells/well, 12.5 μL/well. Virus infections were done at a multiplicity of infection (MOI) of 0.014 with 12.5 μL added per well. SF-OptiMEM, 12.5 μL/well, was added to the appropriate wells to serve as a virus-free negative control for the assay. The final concentration of TPCK-trypsin was 2 μg/mL. Plates were incubated at 37° C., 5% CO2 for 6 days. After 6 days incubation, 12.5 μL of ATP-Lite (PerkinElmer, MA) was added to each well and the raw luminescence values were determined using the Envision 2104 (Perkin Elmer, MA). The average of the raw luminescence values for the cells and virus only positive control wells was subtracted from all conditions tested and the percent cell health was determined by dividing these values by the average of the cells only negative control wells. EC50 values were then calculated by non-linear regression using a four-parameter curve logistic equation. The curve fit model employed was XLFit Dose Response One Site Model 200: y=(A+(B/(1+((x/C)^D)))), where A is the minimum y value, B is the maximum y value, C is the log EC50 value, and D is the slope factor. […] EC50 ranges are as follows: A<0.5 μM; B>0.5 μM.

| EC50 [1] | EC50 [2] | SMILES |
| --- | --- | --- |
| < 200 nM | < 500 nM | COc1cc(C(=O)NC[C@](O)(c2cc3c(c(-c4ccc(F)cc4Cl)n2)OC[C@]3(C)C(N)=O)C(F)(F)F)cc2cc(Cl)c(C)nc12 [Example 509] |
| < 200 nM | < 500 nM | COc1cc(C(=O)NC[C@](O)(c2cc3c(c(-c4ccc(F)cc4Cl)n2)OC[C@]3(C)C(N)=O)C(F)(F)F)cc2cc(C3CC3)nn12 [Example 510] |
| < 200 nM | > 500 nM | COc1cc(C(=O)NC[C@](O)(c2cc3c(c(-c4ccc(F)c(F)c4F)n2)OC[C@]3(C)C(N)=O)C(F)(F)F)cc2cc(C(F)(F)F)cnc12 [Example 512] |
| < 200 nM | < 500 nM | Cc1cnc2c(Cl)cc(C(=O)NC[C@](O)(c3cc4c(c(-c5ccc(F)c(F)c5F)n3)OC[C@]4(C)C(N)=O)C(F)(F)F)cc2c1 [Example 513] |
| < 200 nM | < 500 nM | Cc1nc2c(OC3CC3)cc(C(=O)NC[C@](O)(c3cc4c(c(-c5ccc(F)c(F)c5F)n3)OC[C@]4(C)C(N)=O)C(F)(F)F)cc2cc1Cl [Example 514] |
| < 200 nM | < 500 nM | Cc1cnc2c(OC(F)(F)F)cc(C(=O)NC[C@](O)(c3cc4c(c(-c5ccc(F)c(F)c5F)n3)OC[C@]4(C)C(N)=O)C(F)(F)F)cc2c1 [Example 515] |
| < 200 nM | > 500 nM | COc1cc(C(=O)NC[C@](O)(c2cc3c(c(-c4ccc(F)cc4Cl)n2)OC[C@]3(C)C(N)=O)C(F)(F)F)cc2cc(C(F)(F)F)cnc12 [Example 516] |
| < 200 nM | < 500 nM | Cc1cnc2c(Cl)cc(C(=O)NC[C@](O)(c3cc4c(c(-c5ccc(F)cc5Cl)n3)OC[C@]4(C)C(N)=O)C(F)(F)F)cc2c1 [Example 517] |
| < 200 nM | < 500 nM | Cc1nc2c(OC3CC3)cc(C(=O)NC[C@](O)(c3cc4c(c(-c5ccc(F)cc5Cl)n3)OC[C@]4(C)C(N)=O)C(F)(F)F)cc2cc1Cl [Example 518] |
| < 200 nM | > 500 nM | Cc1cnc2c(OC(F)(F)F)cc(C(=O)NC[C@](O)(c3cc4c(c(-c5ccc(F)cc5Cl)n3)OC[C@]4(C)C(N)=O)C(F)(F)F)cc2c1 [Example 519] |
| < 200 nM | < 500 nM | COc1cc(C(=O)NC[C@](O)(c2cc3c(c(-c4ccc(F)c(F)c4F)n2)OC[C@]3(C)C(N)=O)C(F)(F)F)cc2cc(Br)cnc12 [Example 520] |
| < 200 nM | < 500 nM | COc1cc(C(=O)NC[C@](O)(c2cc3c(c(-c4ccc(F)cc4Cl)n2)OC[C@]3(C)C(N)=O)C(F)(F)F)cc2cc(Br)cnc12 [Example 521] |
| < 200 nM | < 500 nM | COc1cc(C(=O)NC[C@](O)(c2cc3c(c(-c4ccc(F)c(F)c4F)n2)OC[C@]3(C)C(N)=O)C(F)(F)F)cc2cn(C3(F)CC3)nc12 [Example 522] |
| < 200 nM | < 500 nM | Cc1cnc2c(OC(F)F)cc(C(=O)NC[C@](O)(c3cc4c(c(-c5ccc(F)c(F)c5F)n3)OC[C@]4(C)C(N)=O)C(F)(F)F)cc2c1 [Example 523] |
| < 200 nM | < 500 nM | Cc1cnc2c(OC(F)F)cc(C(=O)NC[C@](O)(c3cc4c(c(-c5ccc(F)cc5Cl)n3)OC[C@]4(C)C(N)=O)C(F)(F)F)cc2c1 [Example 524] |
| < 200 nM | < 500 nM | COc1cc(C(=O)NC[C@](O)(c2cc3c(c(-c4ccc(F)c(F)c4F)n2)OC[C@]3(C)C(N)=O)C2CC2)cc2cn(C3CC3)nc12 [Example 525] |
| < 200 nM | < 500 nM | COc1cc(C(=O)NC[C@](O)(c2cc3c(c(-c4ccc(F)c(F)c4F)n2)OC[C@]3(C)C(N)=O)C2CC2)cc2cc(Cl)c(C)nc12 [Example 526] |
| < 200 nM | < 500 nM | Cc1cnc2c(OC(F)F)cc(C(=O)NC[C@](O)(c3cc4c(c(-c5ccc(F)c(F)c5F)n3)OC[C@]4(C)C(N)=O)C3CC3)cc2c1 [Example 527] |
| < 200 nM | < 500 nM | COc1cc(C(=O)NC[C@](O)(c2cc3c(c(-c4ccc(F)c(F)c4F)n2)OC[C@]3(C)C(N)=O)C2CC2)cc2cn(C(F)F)nc12 [Example 528] |

| EC50 [1] | EC50 [2] | SMILES |
| --- | --- | --- |
| < 200 nM | < 500 nM | COc1cc(C(=O)NC[C@](O)(c2cc3c(c(-c4ccc(F)cc4Cl)n2)OC[C@]3(C)C(N)=O)C(F)(F)F)cc2cn(C(F)F)nc12 [Example 529] |
| < 200 nM | < 500 nM | Cc1nc2c(OC3CC3)cc(C(=O)NC[C@](O)(c3cc4c(c(-c5ccc(F)c(F)c5F)n3)OC[C@]4(C)C(N)=O)C3CC3)cc2cc1Cl [Example 530] |
| < 200 nM | < 500 nM | Cc1cnc2c(Cl)cc(C(=O)NC[C@](O)(c3cc4c(c(-c5ccc(F)c(F)c5F)n3)OC[C@]4(C)C(N)=O)C3CC3)cc2c1 [Example 531] |
| < 200 nM | < 500 nM | COc1cc(C(=O)NC[C@](O)(c2cc3c(c(-c4ccc(F)c(F)c4F)n2)OC[C@]3(C)C(N)=O)C2CC2)cc2cc(Br)cnc12 [Example 532] |
| < 200 nM | < 500 nM | COc1cc(C(=O)NC[C@](O)(c2cc3c(c(-c4ccc(F)c(F)c4Cl)n2)OC[C@]3(C)C(N)=O)C2CC2)cc2cn(C3CC3)nc12 [Example 533] |
| < 200 nM | < 500 nM | COc1cc(C(=O)NC[C@](O)(c2cc3c(c(-c4ccc(F)c(F)c4)n2)OC[C@]3(C)C(N)=O)C2CC2)cc2cn(C3CC3)nc12 [Example 534] |
| < 200 nM | < 500 nM | COc1cc(C(=O)NC[C@](O)(c2cc3c(c(-c4cc(Cl)ccc4F)n2)OC[C@]3(C)C(N)=O)C2CC2)cc2cn(C3CC3)nc12 [Example 536] |
| < 200 nM | < 500 nM | COc1cc(C(=O)NC[C@](O)(c2cc3c(c(-c4ccc(F)c(F)c4F)n2)OC[C@]3(C)C(N)=O)C2CC2)cc2cn(C3(F)CC3)nc12 [Example 537] |
| < 200 nM | < 500 nM | Cc1cnc2c(OC(F)F)cc(C(=O)NC[C@](O)(c3cc4c(c(-c5ccc6c(c5)OC(F)(F)O6)n3)OC[C@]4(C)C(N)=O)C3CC3)cc2c1 [Example 538] |
| < 200 nM | < 500 nM | Cc1cnc2c(Cl)cc(C(=O)NC[C@](O)(c3cc4c(c(-c5ccc6c(c5)OC(F)(F)O6)n3)OC[C@]4(C)C(N)=O)C3CC3)cc2c1 [Example 539] |
| < 200 nM | < 500 nM | Cc1nc2c(OC3CC3)cc(C(=O)NC[C@](O)(c3cc4c(c(-c5ccc6c(c5)OC(F)(F)O6)n3)OC[C@]4(C)C(N)=O)C3CC3)cc2cc1Cl [Example 540] |
| < 200 nM | < 500 nM | Cc1cnc2c(OCC(F)F)cc(C(=O)NC[C@](O)(c3cc4c(c(-c5ccc6c(c5)OC(F)(F)O6)n3)OC[C@]4(C)C(N)=O)C3CC3)cc2c1 [Example 541] |
| < 200 nM | < 500 nM | Cc1cnc2c(OC(F)(F)F)cc(C(=O)NC[C@](O)(c3cc4c(c(-c5ccc6c(c5)OC(F)(F)O6)n3)OC[C@]4(C)C(N)=O)C3CC3)cc2c1 [Example 542] |
| < 200 nM | < 500 nM | COc1cc(C(=O)NC[C@](O)(c2cc3c(c(-c4ccc5c(c4)OC(F)(F)O5)n2)OC[C@]3(C)C(N)=O)C2CC2)cc2cc(Br)cnc12 [Example 543] |
| < 200 nM | < 500 nM | C[C@]1(C(N)=O)COc2c1cc([C@@](O)(CNC(=O)c1cc(F)c3nn(C4CC4)cc3c1)C(F)(F)F)nc2-c1ccc2c(c1)OC(F)(F)O2 [Example 544] |
| < 200 nM | < 500 nM | C[C@]1(C(N)=O)COc2c1cc([C@@](O)(CNC(=O)c1cc(F)c3nn(C4CC4)cc3c1)C1CC1)nc2-c1ccc2c(c1)OC(F)(F)O2 [Example 545] |
| < 200 nM | < 500 nM | C[C@]1(C(N)=O)COc2c1cc([C@@](O)(CNC(=O)c1cc(Cl)c3nn(C4CC4)cc3c1)C(F)(F)F)nc2-c1ccc2c(c1)OC(F)(F)O2 [Example 546] |
| < 200 nM | < 500 nM | C[C@]1(C(N)=O)COc2c1cc([C@@](O)(CNC(=O)c1cc(Cl)c3nn(C4CC4)cc3c1)C1CC1)nc2-c1ccc2c(c1)OC(F)(F)O2 [Example 547] |
| < 200 nM | < 500 nM | C[C@]1(C(N)=O)COc2c1cc([C@@](O)(CNC(=O)c1cc(F)c3nc(C4CC4)cn3c1)C(F)(F)F)nc2-c1ccc2c(c1)OC(F)(F)O2 [Example 548] |
